Results as given in ChEMBL document CHEMBL1159258, “Identification of the glycosidase inhibitors swainsonine and calystegine B2 in Weir vine (Ipomoea sp. Q6 [aff. calobra]) and correlation with toxicity” (J Nat Prod, 1995).

What was measured:
[1] = tested on: Prunus dulcis; assay: Inhibition of almond beta-glucosidase at 0.6 ug/mL by colorimetric assay
[2] = target: T1, Alpha-galactosidase (Aspergillus niger) (UniProt Q9Y865); assay: Inhibition of Aspergillus niger alpha-galactosidase at 1.2 ug/mL by colorimetric assay
T1 sequence (whole entry): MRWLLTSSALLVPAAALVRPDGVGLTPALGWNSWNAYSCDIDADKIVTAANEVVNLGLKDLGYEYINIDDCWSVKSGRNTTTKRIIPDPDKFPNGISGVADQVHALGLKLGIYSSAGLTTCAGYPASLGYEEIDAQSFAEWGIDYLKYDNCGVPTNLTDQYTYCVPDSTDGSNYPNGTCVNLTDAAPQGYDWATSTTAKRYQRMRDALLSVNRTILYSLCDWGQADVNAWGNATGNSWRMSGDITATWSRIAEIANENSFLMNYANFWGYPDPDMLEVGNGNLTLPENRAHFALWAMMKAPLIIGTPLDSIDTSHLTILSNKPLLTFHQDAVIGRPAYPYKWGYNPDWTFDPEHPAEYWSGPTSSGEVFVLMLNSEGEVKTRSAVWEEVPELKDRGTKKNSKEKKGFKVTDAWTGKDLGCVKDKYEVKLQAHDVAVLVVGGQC

[3] = tested on: Canavalia ensiformis; assay: Inhibition of jack bean alpha-mannosidase at 25 to 30 ng/mL by colorimetric assay

| Compound | inhibition [1] | inhibition [2] | inhibition [3] |
| --- | --- | --- | --- |
| O[C@@H]1[C@@H](O)[C@H](O)[C@]2(O)CC[C@H]1N2 | 50% | 50% |  |
| O[C@H]1[C@H]2[C@H](O)CCCN2C[C@H]1O |  |  | 50% |
